Several values for one entry are separate records, joined by “and”; a condition that tells them apart may be missing. Equal entries are not always repeated. Where two headings read alike, the source gives them in different places.

Data set [1] has as its system P. falciparum multidrug resistant line Dd2. Briefly: SYBR Green I-based antiplasmodial assay, asexual blood stage, Dd2. The format is cell-based, Plasmodium falciparum. On the procedure:
(§1) The antiplasmodial activity of these analogs was assessed in P. falciparum asexual blood stage using a SYBR Green I-based assay. Compounds were tested in both the multidrug resistant line Dd2, and the chloroquine-sensitive line 3D7, to probe any potential for preexisting resistance. […] These methyldeoxaphomin analogs were also cross-screened for cytotoxicity in the human cell line HepG2 to determine their selectivity for the Plasmodium parasite. […] This effect was maintained with analog NPDG-F where both R1 and R2 were substituted with OH groups. […] In addition, the hydroxyl group at carbon 7 seems to be critical for function as a drastic loss of potency was found in NPDG-D as compared to B and C. […]
(§2) Plasmodium blood stage culture
(§3) Parasite culture in the Chakrabarti lab was maintained following a modified Trager and Jensen protocol (Trager & Jensen, 1976) as previously described (Lee et al., 2021) with RPMI 1640 with 25 mM HEPES pH 7.4, 26 mM NaHCO3, 15 mg/L hypoxanthine, 0.5% Albumax II, 25 mg/L gentamycin, and 2% dextrose. Parasites were grown with human A+ erythrocytes obtained from Florida OneBlood. Cultures were kept in an incubator with 5% […]
(§4) Antiplasmodial activity screening
(§5) SYBR Green I-based fluorescence assay was performed as previously described (Lee et al., 2021) following protocols by Smilkstein et. al. (Smilkstein et al., 2004). Asynchronous Dd2 parasites were added to serially diluted compounds and incubated for 72 h at 5% CO2, 95% air at 37°C. Plates were then frozen at -80°C, thawed, and incubated for one hour with 1x SYBR Green I in a lysis buffer (20 mM Tris-HCL, 0.08% saponin, 5 mM EDTA, and 0.8% Triton X-100). Fluorescence was then read on a Synergy Neo2 multimode reader (BioTek Winsooki, VT). […]

For data set [2], the system named is P. falciparum chloroquine-sensitive line 3D7. Briefly: SYBR Green I-based antiplasmodial assay, asexual blood stage, 3D7. The format is cell-based, Plasmodium falciparum. The method, then:
as §1, §2, §3, §4, §5

Data set [3] has as its system human HepG2 hepatoma cells. Briefly: cells. The format is cell-based. The method, then:
as §1
Cytotoxicity was assessed using an MTS (3-(4,5-Dimethylthiazol-2-yl)-5-(3-carboxymethoxyphenyl)-2-(4-sulfophenyl)-2H-tetrazolium) absorbance assay with human HepG2 hepatoma cells. Cells were maintained in MEM supplemented with 10%FBS, 1% Antibiotic/Antimycotic, 1 mM sodium pyruvate, and 0.15% sodium bicarbonate in a 5 % CO2, 95% air environment at 37°C. For the assay cells were seeded at a density of 2,250 cells per well on 384-well microtiter plates 24 h prior to compound addition. Following a 48-h incubation with compounds, MTS solution was added to wells and absorbance was read after 2-4 h on a Synergy Neo2 multimode reader (BioTek Winsooki, VT). Compound dose response curves and EC50 determination was performed using CDD Vault normalized to 5% triton and vehicle controls. […]

Data set [4] concerns P. falciparum. The data set can be described thus: Isobologram assay with NPDG-F. The format is cell-based, Plasmodium falciparum. Conditions: for relationship with NPDG-F at low concentrations: low / very low concentrations; for relationship with NPDG-F at higher concentrations: moderate to high / higher concentrations; for IC50: single compounds, dose–response, Fig. 3A, read-out: Mean IC50 ± SEM. On the procedure:
To further explore the relationship of NPDG-F with established actin-interfering drugs, an isobologram study was performed (Fig. 3). NPDG-F was added in combination with four inhibtors known to interfere with actin polymerization including a formin inhibitor SMIFH2, cofilin inhibitor SZ-3, F-actin targeting compound jasplakinolide, and G-actin targeting latrunculin B. The frontline antimalarial DHA was also added as a nonactin inhibitor control. After dose–response curves were generated (Fig. 3A), the fractional inhibitory concentrations (FICs) of NPDG-F and the combination drug were calculated and graphed. […]
as §2, §3, §4
as §5, with “VT). Compound dose response curves and EC50 determination was performed using CDD Vault normalized to 10 µM CQ and vehicle” for “VT).”
For isobologram assessment, inhibitors were tested using a 1:2 dilution with starting concentrations selected as 40 nM for DHA, 100 µM Latrunculin B, 100 µM SMIFH2, and 40 nM for jasplakinolide. These concentrations were selected to provide 2-3 points above […]
EC50s. The test inhibitor methyldeoxaphomin NPDG-F was then added in combination with the aforementioned inhibitors at concentrations ranging from 10 to 0.3125 µM. Dose-response curves were then generated for the available conditions where EC50s could be determined. The fractional inhibitor concentration of both compounds was then determined as described (Fivelman et al., 2004) for the available points and graphed on a scale of 0-1 also using Graphpad Prism version 10. […]

In data set [5] the test system is P. falciparum. Briefly: Parasite reduction ratio (PRR). The format is cell-based, Plasmodium falciparum. Conditions: 10 × EC50. On the procedure:
After a 24 h lag phase, only 10^0.64 parasites are killed within the first replication cycle (48 h). […] We also examined the in vitro killing rate in Dd2 through flow cytometric analysis. […]
Parasite reduction ratio adapted from protocol by Sanz et al (Sanz et al., 2012). In brief, early ring stage mono-infected RBCs at 106 were incubated with a 10 x EC50 concentration of NPDG-F, DHA, or atovaquone for either 24, 48, 72, 96, or 120 h. Following incubations, cells were washed and serially diluted. After 3 weeks, growth was determined via SYBR […]
Green I staining. […]

Setting [6] is: Plasmodium falciparum, DD2, 72 h, read-out: Dd2 EC50, means from triplicate experiments ± SEM, 72 h.
Where [7] appears, read: Plasmodium falciparum, DD2, read-out: Dd2: Average EC50, average ± SEM of three replicates.
Setting [8] is: Plasmodium falciparum, DD2, read-out: Dd2: EC50, individual replicates.
The mark [9] stands for this setting: Plasmodium falciparum, 3D7, average ± SEM of three replicates, read-out: 3D7: Average EC50.
Setting [10] is: Plasmodium falciparum, 3D7, individual replicates, read-out: 3D7: EC50.
Where [11] appears, read: Plasmodium falciparum, 3D7, means from triplicate experiments ± SEM, read-out: 3D7 EC50.
Setting [12] is: Homo sapiens, HepG2, 48 h, means from triplicate experiments ± SEM, 48-h incubation, read-out: HepG2 EC50.
The mark [13] stands for this setting: Homo sapiens, HepG2, average ± SEM of three replicates, read-out: HepG2: Average EC50.
The mark [14] stands for this setting: Homo sapiens, HepG2, individual replicates, read-out: HepG2: EC50.
The mark [15] stands for this setting: individual replicates, read-out: HepG2: EC50.

For orientation: EC50 means the midpoint of the concentration-response curve. For `CC1CC=CC2C=C(CO)C(C)C3C(Cc4ccccc4)NC(=O)C23C(=O)C=CC(=O)C(O)C(C)C1` (stereo not shown) [Methyldeoxaphomin NPDG-D], the EC50 in data set [1] (setting [6]), in data set [1] (setting [7]), in data set [1] (setting [8]), in data set [2] (setting [9]), in data set [2] (setting [10]) and in data set [2] (setting [11]) was greater than 5 µM each time. In addition, the EC50 in data set [3] (setting [12]) was determined as 8.2 µM; in data set [3] (setting [13]), 8.2 ± 0.07 µM; in data set [3] (setting [14]), 8.3 µM; in data set [3] (setting [15]) it was 8.1 µM.
With `C=C1C(C)C2C(Cc3ccccc3)NC(=O)C23C(=O)C=CC(O)CC(C)CC(C)CC=CC3C1O` (stereo not shown) [Methyldeoxaphomin NPDG-E], the EC50 was 2.6 µM in data set [1] (setting [6]); 2.6 ± 0.31 µM in data set [1] (setting [7]); 2.22 µM in data set [1] (setting [8]); 3.18 µM and 2.28 µM in data set [1] (read-out: Dd2: EC50, individual replicates); 2.8 ± 0.14 µM in data set [2] (setting [9]); 2.67 µM in data set [2] (setting [10]). The EC50 is 2.8 ± 0.14 µM in data set [2] (setting [11]); 2.6 µM and 3.04 µM in data set [2] (individual replicates, read-out: 3D7: EC50); 23 µM in data set [3] (setting [12]); 23 ± 0.92 µM in data set [3] (setting [13]); 21.3 µM in data set [3] (setting [14]); 24.7 µM and 23.2 µM in data set [3] (setting [15]). For the same compound, the “Selectivity Index (SI)” value in data set [3] (HepG2 EC50/(mean of Dd2 EC50, 3D7 EC50)) came to 9.
With `C=C1[C@@H](C)[C@H]2[C@H](Cc3ccccc3)NC(=O)[C@]23C(=O)/C=C/C(=O)C[C@@H](C)C[C@H](C)C/C=C/[C@H]3[C@@H]1O` [Methyldeoxaphomin NPDG-A], the concentration giving a half-maximal response (EC50) in data set [1] (setting [6]), in data set [1] (setting [7]), in data set [1] (setting [8]), in data set [2] (setting [9]), in data set [2] (setting [10]) and in data set [2] (setting [11]) was greater than 5 µM throughout. Further, the EC50 in data set [3] (setting [12]), in data set [3] (setting [13]) and in data set [3] (setting [14]) was greater than 25 µM each time. In addition, the “cytotoxicity in HepG2 at the highest concentration tested” value in data set [3] (25 µM) is “no inhibition”.
What is called IC50 is the concentration that gives 50% inhibition. Regarding `O=C1NC(=S)N(c2cccc(Br)c2)C(=O)/C1=C/c1ccco1` [SMIFH2], in the data set with P. falciparum [4], the “relationship with NPDG-F at low concentrations” value is listed as “primarily indifferent”, the “relationship with NPDG-F at higher concentrations” value is “antagonistic” and the concentration for half-maximal inhibition (IC50) amounted to 11.3 ± 1.35 µM.
`C[C@H]1[C@@H](O)O[C@@H]2O[C@@]3(C)CC[C@H]4[C@H](C)CC[C@@H]1[C@@]24OO3` [DHA, dihydroartemisinin]: in the data set with P. falciparum [5], the “99.9% PCT (parasite clearance time)” value is 32.5 h and the lag phase stood at 0 h. For the same compound, the IC50 with P. falciparum [4] (Plasmodium falciparum) worked out at 0.005 ± 0.001 µM. In the data set on P. falciparum [4], the “relationship with NPDG-F at low concentrations” value is reported as “somewhat synergistic” and the “relationship with NPDG-F at higher concentrations” value is given as “antagonistic”.
As to `C/C1=C/C(=O)O[C@@H]2C[C@@H](CC[C@H](C)/C=C\CC1)O[C@@](O)([C@@H]1CSC(=O)N1)C2` [latrunculin B], the “fractional inhibitory concentration (FIC)” value in the data set with P. falciparum [4] (combination with NPDG-F) was “highest FIC values overall”. Besides, the IC50 in the data set on P. falciparum [4] was 34.1 ± 1.51 µM.
Take `O=C1C(O)=C([C@H]2CC[C@H](c3ccc(Cl)cc3)CC2)C(=O)c2ccccc21` [atovaquone]: in the data set with P. falciparum [5], the “99.9% PCT (parasite clearance time)” value is “more than 96 h”, the lag phase is on record as 24 h and the “log(PRR)” value was 5.12.

The record behind these values is article PMC11874377, “Fungal-derived methyldeoxaphomins target Plasmodium falciparum segregation through the inhibition of PfActin1” (Proceedings of the National Academy of Sciences of the …, 2025).
